Measured values: US6916432B2, “Hair bleach composition and hair dye composition” (Kao Corporation, priority 2000, dated 2005)

Assay: partition coefficient (octanol-water) (log P) at 25° C.
Settings: octanol-water, 25° C.

Compound | log P (at 25° C.)
COCCOCCO [methoxydiglycol] | −0.7

Same assay, conditions: octanol/water

logP | Compound
-1.1 | CC(O)CO (centres unmarked) [propylene glycol]
-0.2 | CCN1CCCC1=O [N-ethylpyrrolidone]
-2.2 | OCC(O)CO [glycerin]
1.1 | CC(O)COc1ccccc1 (centres unmarked) [1-phenoxy-2-propanol]
1.2 | OCCOCc1ccccc1 [2-benzyloxyethanol]
-0.5 | CN1CCCC1=O [N-methylpyrrolidone]
0.9 | CCCCOCCOCCO [diethylene glycol mono-n-butyl ether]
-0.2 | CCOCCO [2-ethoxyethanol]

Assay: physchem
Settings: not given

Compound | logP
OCCOc1ccccc1 [2-phenoxyethanol] | 1.2
CCCCOCCO [ethylene glycol mono-n-butyl ether] | 0.8
OCCOCCO [diethylene glycol] | -1.3
CC(O)CCO (centres unmarked) [1,3-butanediol] | -1.4
OC1CCCCC1 [cyclohexanol] | 1.2
